Laboratory results taken from publication PMC4174574 (Molecular cancer therapeutics, 2013).

Key:
Mcl-1 [1] = target: T1, Mcl-1 (Homo sapiens, UniProt Q07820); details: cited from earlier work
[2] = tested on: wild type (WT) murine embryonic fibroblasts (MEF); details: 10 μM, 24 h
[3] = target: Mcl-1/Bax and Mcl-1/Bak in BxPC-3 cells (Homo sapiens, UniProt Q07820); details: BxPC-3, 4 μM, 24 h
Mcl-1 [4] = target: T1, Mcl-1; type: binding
Bcl-xL [5] = target: T2, Bcl-xL (Homo sapiens, UniProt Q07817); details: solution competitive SPR, immobilized Bid peptide
T2 sequence (Q07817 whole entry): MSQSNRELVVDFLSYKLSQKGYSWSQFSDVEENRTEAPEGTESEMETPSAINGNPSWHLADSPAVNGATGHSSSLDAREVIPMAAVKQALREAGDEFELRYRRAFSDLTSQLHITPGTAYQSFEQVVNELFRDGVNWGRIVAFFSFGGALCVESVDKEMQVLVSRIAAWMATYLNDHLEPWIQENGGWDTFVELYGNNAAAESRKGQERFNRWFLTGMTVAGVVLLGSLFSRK

BxPC-3 xenograft = BxPC-3 xenograft efficacy in SCID mice; type: in vivo; details: 60 mg/kg i.v.; for Tumor growth inhibition in comparison with controls: 5 days a week for two weeks
BxPC-3 cells [6] = assay: Cell growth inhibition; details: BxPC-3 transfected with control siRNA, 3.5 μM, 72 h
[7] = tested on: Bax/Bak-deficient (DKO) MEFs; details: 10 μM, 24 h
[8] = Metabolic stability in pooled mice liver microsomes; type: in vitro ADME
Panc-1 = details: read-out: IC50 cell growth inhibition, Panc-1; 4 days treatment
Capan-2 = details: read-out: IC50 cell growth inhibition, Capan-2; 4 days treatment
Bcl-2 [9] = target: T3, Bcl-2 (Homo sapiens, UniProt P10415); assay: FP-based competitive binding assay using fluorescent labeled Bid BH3 peptide
T3 sequence (P10415 whole entry): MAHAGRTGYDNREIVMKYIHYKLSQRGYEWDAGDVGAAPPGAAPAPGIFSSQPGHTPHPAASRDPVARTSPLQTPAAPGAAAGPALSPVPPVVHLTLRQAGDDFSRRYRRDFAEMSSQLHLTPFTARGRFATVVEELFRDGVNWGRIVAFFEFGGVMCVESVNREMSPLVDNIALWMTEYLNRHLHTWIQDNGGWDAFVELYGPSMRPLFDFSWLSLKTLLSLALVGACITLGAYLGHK

Panc-1 cells [10] = details: Panc-1, 24 h, anti-Bax 6A7
Mcl-1 [11] = target: T1, Mcl-1; assay: FP-based competitive binding assay using fluorescent labeled Bid BH3 peptide
Bcl-xL [12] = target: T2, Bcl-xL; assay: as above
BxPC-3 cells [13] = assay: Induction of apoptosis; details: BxPC-3 transfected with control siRNA, 3.5 μM, 72 h
Bcl-w = target: T4, Bcl-w (Homo sapiens, UniProt Q92843); assay: FP-based competitive binding assay using fluorescent labeled Bid BH3 peptide; details: for Ki: read-out: Ki ± SD, Bcl-w, competitive FP assay, Bid BH3 peptide
T4 sequence (Q92843 1-193): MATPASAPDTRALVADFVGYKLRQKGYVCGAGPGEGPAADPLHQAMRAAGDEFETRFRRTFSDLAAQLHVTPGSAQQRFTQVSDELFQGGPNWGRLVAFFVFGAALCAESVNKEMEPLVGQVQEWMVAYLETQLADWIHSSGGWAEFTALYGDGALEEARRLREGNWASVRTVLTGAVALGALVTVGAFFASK

BxPC-3 = details: read-out: IC50 cell growth inhibition, BxPC-3; 4 days treatment
AsPC-1 cells = details: AsPC-1, highest tested concentration 20 μM
Panc-1 cells [14] = assay: Induction of apoptosis, Annexin V/PI double staining flow cytometry; type: cell-based, human
MiaPaCa-2 = details: read-out: IC50 cell growth inhibition, MiaPaCa-2; 4 days treatment
Bcl-2 [15] = target: T3, Bcl-2; details: solution competitive SPR, immobilized Bid peptide
AsPC-1 = details: read-out: IC50 cell growth inhibition, AsPC-1; 4 days treatment
BxPC-3 cells [16] = details: BxPC-3, 24 h, anti-Bax 6A7
SCID mice = details: mouse, in vivo
A1/Bfl-1 = target: T5, A1/Bfl-1 (Homo sapiens, UniProt Q16548); assay: FP-based competitive binding assay using fluorescent labeled Bid BH3 peptide; details: for Ki: read-out: Ki ± SD, A1/Bfl-1, competitive FP assay, Bid BH3 peptide
T5 sequence (Q16548 1-175): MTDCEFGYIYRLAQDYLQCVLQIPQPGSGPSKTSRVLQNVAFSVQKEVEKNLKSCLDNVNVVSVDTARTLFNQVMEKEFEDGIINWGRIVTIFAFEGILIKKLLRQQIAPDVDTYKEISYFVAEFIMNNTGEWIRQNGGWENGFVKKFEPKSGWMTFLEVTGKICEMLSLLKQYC

BxPC-3 cells [17] = details: BxPC-3, 24 h, 3 and 10 μM, densitometry
Panc-1 cells [18] = details: Panc-1, 24 h treatment
cellular Mcl-1 = cellular Mcl-1 (Homo sapiens, UniProt Q07820); assay: Biotin-labeled Noxa BH3 peptide streptavidin pull-down from 2LMP cell lysate; type: binding
cellular Mcl-1, sequence (Q07820 whole entry): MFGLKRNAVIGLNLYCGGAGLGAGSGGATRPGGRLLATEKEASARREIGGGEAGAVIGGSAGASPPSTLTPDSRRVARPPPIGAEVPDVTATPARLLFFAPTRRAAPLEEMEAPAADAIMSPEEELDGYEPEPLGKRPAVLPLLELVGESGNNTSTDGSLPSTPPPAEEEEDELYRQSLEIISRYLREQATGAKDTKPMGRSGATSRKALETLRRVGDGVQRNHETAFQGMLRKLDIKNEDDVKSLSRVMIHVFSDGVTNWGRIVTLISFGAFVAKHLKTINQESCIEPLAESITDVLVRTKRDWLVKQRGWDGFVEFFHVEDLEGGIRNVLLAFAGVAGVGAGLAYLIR

T1 sequence (Q07820 whole entry): as above
Mcl-1/Bax and Mcl-1/Bak in BxPC-3 cells, sequence (Q07820 whole entry): as above

SMILES: CN(C)CC[C@H](CSc1ccccc1)Nc1ccc(S(=O)(=O)NC(=O)c2ccc(N3CCN(Cc4ccccc4-c4ccc(Cl)cc4)CC3)cc2)cc1[N+](=O)[O-] [ABT-737]
- Binding to Mcl-1 (Mcl-1 [1]): fails to bind

SMILES: O=C(O)CSc1cc(NS(=O)(=O)c2ccc(Br)cc2)c2ccccc2c1O [UMI-77]
- Apoptosis in MEF WT cells [2]: more than 60%
- Endogenous protein-protein interactions of Bax and Bak with Mcl-1 [3]: inhibition of the endogenous protein-protein interactions of Bax and Bak with Mcl-1
- Fold improved binding affinity to Mcl-1 in comparison with UMI-59 (SPR) (Mcl-1 [4]; SPR IC50 ratio): 4 fold
- IC50 (Mcl-1 [4]; read-out: IC50, Mcl-1 (SPR), solution competitive SPR, immobilized Bid peptide): 0.31 µM
- Fold decreased binding to Bcl-xL vs Mcl-1 (SPR) (Bcl-xL [5]): more than 30 fold
- Positive apoptotic cells of tumor sections (TUNEL) vs control group (BxPC-3 xenograft): significantly increased
- Survivin in tumor tissue lysates (western blot) (BxPC-3 xenograft): significant decrease of survivin
- Tumor growth inhibition in comparison with controls (BxPC-3 xenograft; day 19 (p < 0.0001)): 65%
- Tumor growth inhibition in comparison with controls (BxPC-3 xenograft; day 22 (p < 0.003)): 56%
- Cell growth inhibition (BxPC-3 cells [6]): 50%
- Apoptotic cells in MEF DKO cells [7]: 16%
- Microsomal half-life (T1/2) [8]: 45 min
- IC50 (Panc-1): 4.4 µM
- IC50 (Capan-2): 5.5 µM
- Fold reduced binding to Bcl-2 vs Mcl-1 (Bcl-2 [9]; FP Ki ratio): more than 50 fold
- Ki (Bcl-2 [9]; read-out: Ki ± SD, Bcl-2, competitive FP assay, Bid BH3 peptide): 23.8 ± 1.81 µM
- Concentration from which activated Bax is substantially increased (Panc-1 cells [10]): ≥ 5 µM
- Potency for binding to Mcl-1 relative to 1 (UMI-59) (Mcl-1 [11]; FP Ki ratio): three times higher potency
- Ki (Mcl-1 [11]; read-out: Ki ± SD, Mcl-1, competitive FP assay, Bid BH3 peptide): 0.49 ± 0.06 µM
- Fold reduced binding to Bcl-xL vs Mcl-1 (Bcl-xL [12]; FP Ki ratio): more than 50 fold
- Ki (Bcl-xL [12]; read-out: Ki ± SD, Bcl-xL, competitive FP assay, Bid BH3 peptide): 33 ± 4.33 µM
- Induction of apoptosis (BxPC-3 cells [13]): 7 fold
- Fold decreased binding to Bcl-w vs Mcl-1 (Bcl-w; FP Ki ratio): 17 fold
- Ki (Bcl-w): 8.19 ± 1.91 µM
- IC50 (BxPC-3): 3.4 µM
- Induction of early apoptosis (AsPC-1 cells): 8%
- Early apoptotic cells (Panc-1 cells [14]; Panc-1, 5 μM, 24 hours): 15%
- Early apoptotic cells (Panc-1 cells [14]; Panc-1, 5 μM, 48 hours): 21%
- Early apoptotic cells (Panc-1 cells [14]; Panc-1, 10 μM, 24 hours): 21%
- Early apoptotic cells (Panc-1 cells [14]; Panc-1, 10 μM, 48 hours): 49%
- IC50 (MiaPaCa-2): 12.5 µM
- Fold decreased binding to Bcl-2 vs Mcl-1 (SPR) (Bcl-2 [15]): more than 30 fold
- IC50 (AsPC-1): 16.1 µM
- Concentration from which activated Bax is substantially increased (BxPC-3 cells [16]): ≥ 5 µM
- Histopathology (H&E) of kidney, liver and pancreas (SCID mice): did not cause damage
- Fold lower affinity to A1/Bfl-1 than to Mcl-1 (A1/Bfl-1; FP Ki ratio): 11 fold
- Ki (A1/Bfl-1): 5.33 ± 1 µM
- Cleaved caspase-3 versus DMSO control (BxPC-3 cells [17]): statistically significant cleaved caspase-3 versus DMSO control
- Concentration from which cytochrome c and Smac are released from mitochondria (Panc-1 cells [18]): ≥ 10 µM
- Concentration from which BL-Noxa / cellular Mcl-1 interaction is blocked (cellular Mcl-1): ≥ 10 µM
- Disruption of BL-Noxa / cellular Mcl-1 interaction (cellular Mcl-1): effectively disrupt the interactions between BL-Noxa and cellular Mcl-1 in a dose dependent manner

SMILES: O=C(O)CSc1cc(NS(=O)(=O)c2cccs2)c2ccccc2c1O [UMI-59]
- Ki (Bcl-w): 37.5 ± 7.96 µM
- Ki (A1/Bfl-1): 6.14 ± 1 µM
- Disruption of BL-Noxa / cellular Mcl-1 interaction (cellular Mcl-1): effectively disrupt the interactions between BL-Noxa and cellular Mcl-1 in a dose dependent manner
